Laboratory results as given in paper PMC9964544, “Evidence of Insulin-Sensitizing and Mimetic Activity of the Sesquiterpene Quinone Avarone, a Protein Tyrosine Phosphatase 1B and Aldose Reductase Dual Targeting Agent from the Marine Sponge Dysidea avara” (Pharmaceutics, 2023).
“Also recorded” adds a separate entry of the source.

How the values were obtained:
human recombinant AKR1B1 [1] = target: T1, human recombinant AKR1B1 (Homo sapiens, UniProt P15121); assay: AKR1B1 inhibition assay with L-idose as substrate, NADPH oxidation (IC50); type: biochemical; details: 10 mU AKR1B1, 1.6 mM L-idose, 37 °C; IC50 ± SD
T1 construct: made in house
Experimental: The purification of human recombinant AKR1B1 was performed as previously described. […] The purified enzyme, stored at −80 °C in 10 mM sodium phosphate buffer pH 7.0 containing 2 mM DTT and 30% (w/v) glycerol, was extensively dialyzed against 10 mM sodium phosphate buffer pH 7.0 before use. […] The fractions containing PTP1B were collected, concentrated, and injected into a Superdex G75 column equilibrated with Tris-HCl buffer pH 8.0 containing 150 mM NaCl and 1 mM mercaptoethanol. The fractions containing PTP1B were collected and concentrated; the purity of preparation was evaluated using SDS-PAGE. The PTP1B preparation was split into fractions of 0.5 mL volume; each fraction was stored at −80 °C.
The standard assay mixture (final volume 0.7 mL) was contained in 0.25 M sodium phosphate buffer pH 6.8, 0.18 mM NADPH, 0.4 M ammonium sulfate, 0.5 mM EDTA, and 4.7 mM GAL. One unit of enzyme activity is the amount of enzyme that catalyzes the conversion of 1 µmol of substrate/min in the above assay conditions. The same assay conditions were adopted in the inhibition studies using L-idose as the substrate at the indicated concentrations. PTP1B activity was determined using p-nitrophenylphosphate (pNPP) as the synthetic substrate. The pNPP was dissolved in 0.075 M ββ-dimethylglutarate buffer, pH 7.0, containing 1 mM dithiothreitol. Each assay was carried out at 37 °C in 1 mL of assay buffer. The reactions were started by diluting an aliquot of PTP1B preparation in the assay buffer; after 30 min, the reactions were stopped by adding 2 mL of 0.2 M KOH solution. The amount of p-nitrophenol released was determined spectrophotometrically, reading the absorbance of solutions at 400 nm (ε400nm = 18 mM^−^1cm^−^1).

human recombinant AKR1B1 [2] = target: T1, human recombinant AKR1B1; assay: Kinetic characterization and reversibility of AKR1B1 inhibition (Morrison equation, tight binding); type: biochemical
Text: AKR1B1 activity measurements obtained at each substrate concentration were fitted by nonlinear regression analysis to the Morrison equation reported below (Equation (1)). (1) vi=1−([ET]+[I]+Kiapp)−([ET]+[I]+Kiapp)^2−4[ET][I]/2[ET]
This allowed the evaluation of Kiapp . In order to obtain the inhibition constants Ki (dissociation constant of the EI complex) and Ki′ , (dissociation constant of the EIS complex), the Kiapp values were plotted against substrate concentration and fitted by nonlinear regression analysis to the following equation:(2) Kiapp=([S]+ KM)/(KM/Ki+[S]/Ki′)
Panel A: the activity of the purified enzyme (10 mU) was measured at the indicated concentrations of avarone in the presence of the indicated L-idose concentrations. (B) Experimental data reported in (A) were fitted to the Morrison equation (see Materials and methods, Equation (1)).

TC-PTP = target: T2, TC-PTP (Homo sapiens, UniProt P17706); assay: TC-PTP inhibition (IC50), specificity of avarone; type: biochemical
T2 sequence (P17706 1-415): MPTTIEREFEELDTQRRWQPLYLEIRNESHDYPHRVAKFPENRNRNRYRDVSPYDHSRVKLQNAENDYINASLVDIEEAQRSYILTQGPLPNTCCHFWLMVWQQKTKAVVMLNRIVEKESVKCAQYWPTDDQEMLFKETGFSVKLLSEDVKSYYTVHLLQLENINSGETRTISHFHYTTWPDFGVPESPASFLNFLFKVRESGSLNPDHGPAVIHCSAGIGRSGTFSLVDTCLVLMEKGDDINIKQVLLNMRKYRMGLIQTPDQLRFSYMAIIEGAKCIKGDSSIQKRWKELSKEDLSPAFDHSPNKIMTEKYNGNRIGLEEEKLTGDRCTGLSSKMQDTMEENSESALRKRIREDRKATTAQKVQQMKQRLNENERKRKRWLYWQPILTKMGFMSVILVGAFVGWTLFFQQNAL
Experimental: To evaluate the capacity of avarone to specifically target the PTP1B enzyme, we determined the IC50 value for TC-PTP, another member of the tyrosine phosphatase family (Figure S14). […] To confirm this hypothesis, the interaction mode of avarone with TC-PTP was analyzed by in silico docking analysis carried out using the crystallographic structure (7F5N) deposited in the PDB database.
Figure S13. Binding sites of avarone (2) identified by docking analyses. ( A), General view
of interaction sites of avarone on PTP1B surface. (B), detail showing the molecules of
avarone bound into the active site of PTP1B. The images were obtained using the UCSF
Figure S14. Determination of the IC50 values of avarone for PTP1B (A), and TC-PTP (B).

Human PTP1B = target: T3, Human PTP1B (Homo sapiens, UniProt P18031); assay: Kinetic analysis of PTP1B inhibition (Lineweaver-Burk plot, KM,app fit, dilution assay); details: for Ki: fit of KM,app against avarone concentration, Equation (3)
T3 sequence (P18031 1-302): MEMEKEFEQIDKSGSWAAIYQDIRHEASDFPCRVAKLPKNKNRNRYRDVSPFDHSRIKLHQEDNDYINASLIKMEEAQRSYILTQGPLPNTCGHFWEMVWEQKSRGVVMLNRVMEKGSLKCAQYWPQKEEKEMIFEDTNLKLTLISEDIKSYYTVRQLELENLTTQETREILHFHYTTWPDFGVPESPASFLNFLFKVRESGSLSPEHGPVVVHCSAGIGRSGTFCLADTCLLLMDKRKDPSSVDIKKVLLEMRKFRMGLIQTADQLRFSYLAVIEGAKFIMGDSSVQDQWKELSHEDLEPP
Experimental: Equation (2) refers to a general case of a tight binding non-competitive inhibition model. […] The mechanism of action of avarone was evaluated by analyzing the effect of increasing avarone concentrations on the main kinetic parameters (KM and Vmax) of PTP1B. Data obtained were analyzed using the Lineweaver–Burk plot. The value of Ki was determined using the appropriate equations.
The second inhibitor molecule (IB) can only bind to EIA, generating the ternary complex (EIAIB). Considering the prevailing rapid equilibrium conditions, it was possible to derive Equation (3), which describes the dependence of KM on the avarone concentration. […] (3) KM,app=KM×{1+[I]/KiA+[I]^2/KiA×KiB}
Figure 4 Impact of avarone on PTP1B-catalyzed hydrolysis of pNPP: the Lineweaver–Burk plot. Data reported in the figure were obtained by measuring the initial hydrolysis rate of pNPP at seven different concentrations, in the presence of increasing concentration of avarone. The concentrations of avarone used were: 0 µM, (●); 4 µM, (☐); 5.5 µM, (▲); 7 µM (▽). Each test was carried out in triplicate. Data reported in the figure represent the mean value ± SD.
Figure 5 Determination of KiA and KiB for avarone. Dependence of KM,app from the avarone concentration. Data obtained were fitted using Equation (3). Data fitting was obtained using OriginPlus 2021 software.
Dilution assay. An aliquot of PTP1B was incubated for 1 h at 37°C in the
presence of saturating concentration (50 µM) of avarone (2). A control test was prepared
diluting PTP1B solution with the same volume of DMSO, the solvent used to dissolve 2.
After 1 h, an aliquot of samples was withdrawn and diluted 400 fold in buffer assay to
evaluate the residual activity of the enzyme. All tes ts were carried out in triplicate. Data
obtained were normalized respect to control sample.
Dependence of K M and Vmax from avarone (2) concentration. The concentration
of avarone used were: 0, 4.0, 5.5, and 7.0 µM. To calculate both K M and Vmax valued, we
determined the initial hydrolysis rate at seven different substrate (pNPP) concentrations
(0.5, 1, 2 4, 8 16 , 25 mM). Experimental data were fitted with Michaelis -Menten equation
using OriginPro 2021 software

IC50 (human recombinant AKR1B1 [1]): 78 ± 17 nM
Ki' (dissociation constant of the EIS complex) AKR1B1 (human recombinant AKR1B1 [2]; L-idose substrate, tight binding non-competitive model): 55 ± 8 nM
Ki (human recombinant AKR1B1 [2]; L-idose substrate, tight binding non-competitive model, read-out: Ki (dissociation constant of the EI complex) AKR1B1): 410 ± 94 nM
IC50 (TC-PTP): 39200 nM
affinity for TC-PTP lower than that for PTP1B (TC-PTP; ratio of IC50 values TC-PTP / PTP1B): 5.8 fold
reversibility of PTP1B inhibition (dilution assay) (Human PTP1B; 50 µM avarone, 1 h at 37°C, diluted 400 fold): reversible inhibitor
Ki (Human PTP1B; KiA PTP1B (first inhibitor molecule)): 15100 ± 1400 nM
Ki (Human PTP1B; KiB PTP1B (second inhibitor molecule, binds EIA)): 1000 ± 100 nM
SMILES: CC1=CCC[C@H]2[C@](C)(CC3=CC(=O)C=CC3=O)[C@@H](C)CC[C@]12C [avarone (2), avarone]
type of AKR1B1 inhibition (human recombinant AKR1B1 [2]): “tight binding” inhibitor; also recorded: non-competitive mixed-type inhibitor
type of PTP1B inhibition (Human PTP1B; pNPP, 0-7 µM avarone, double reciprocal plot): competitive inhibitor; also recorded: cooperative pure competitive inhibition by two non-exclusive inhibitor molecules
